What was measured:
[1] = system: F. nucleatum mixed with E. coli and P. mirabilis; type: cell-based
[2] = system: P. levii mixed with E. coli and P. mirabilis; type: cell-based
Fusobacterium nucleatum = conditions: 48 hours, cultures of Table 4
[3] = system: Peptostreptococcus anaerobius; conditions: 48 hours, cultures of Table 4
[4] = system: C. perfringens mixed with E. coli and P. mirabilis; type: cell-based
[5] = system: P. anaerobius mixed with E. coli and P. mirabilis; type: cell-based
[6] = system: B. fragilis mixed with E. coli and P. mirabilis; type: cell-based

## [N-]=[N+]=[N-] [Azide, sodium azide]
[1]
  Lowest concentration of azide in the tube that successfully separated the anaerobe: 0.1 mg/mL
[2]
  Lowest concentration of azide in the tube that successfully separated the anaerobe: 0.1 mg/mL
Fusobacterium nucleatum
  Level of growth (below visible turbidity): less than 10^7 CFU/ml
[3]
  Level of growth (below visible turbidity): less than 10^7 CFU/ml
Escherichia coli
  Concentration of azide that inhibited growth in anoxic broth: ≤ 0.1 mg/mL
Proteus mirabilis
  Concentration of azide at which swarming is inhibited: above 0.1 mg/ml
[4]
  Lowest concentration of azide in the tube that successfully separated the anaerobe: 0.1 mg/mL
[5]
  Lowest concentration of azide in the tube that successfully separated the anaerobe: 0.1 mg/mL
[6]
  Lowest concentration of azide in the tube that successfully separated the anaerobe: 0.2 mg/mL

From US7374905B2, “Medium composition, method and device for selectively enhancing the isolation of anaerobic microorganisms contained in a mixed sample with facultative microorganisms” (Oxyrase, Inc., priority 2000, dated 2008)
